In patent US12227500B2, “Substituted pyrrolo[2,3-b]pyridines for suppressing toxic endoplasmic reticulum stress” (THE TRUSTEES OF COLUMBIA UNIVERSITY IN THE CITY OF NEW YORK, priority 2018, dated 2025):
Like-named read-outs stand apart in the source and are kept apart here.

What was measured:
Assay type in all cases: biochemical
[1] = biological target: T1, panel of 60 human kinases (Homo sapiens, UniProt O95819); test: Radiolabeled ATP kinase assay, panel of 60 kinases (Table S5); details: HGK/MAP4K4; 0.1 μM; 10 μM ATP; read-out: % Enzyme Activity (relative to DSMO controls)
T1 construct: purchased Reaction Biology Corp
Method: (§1) To better understand the biologically relevant targets of compound 1 and its analogs, a second round of cell-free kinase assays was performed. In this expanded assay, we selected ten analogs ranging from moderately to very strongly protective in the CPA assay. These analogs were evaluated for their ability to inhibit a selection of 60 kinases at 0.1 μM and 0.5 μM. […] RNAseq data were used to confirm the expression of each kinase in ES MNs (see Example 12).
(§2) RNAseq data were used to confirm the expression of each kinase in ES motor neurons (see Example 12).

[2] = biological target: T2, panel of 60 human kinases (Homo sapiens, UniProt P08581); test: as above; details: c-MET; 0.1 μM; 10 μM ATP; read-out: % Enzyme Activity (relative to DSMO controls)
T2 construct: purchased Reaction Biology Corp
Method: as §1, §2

[3] = biological target: T3, panel of 60 human kinases (Homo sapiens, UniProt P11802); test: as above; details: 0.1 μM, 10 μM ATP, read-out: % Enzyme Activity (relative to DSMO controls)
T3 construct: purchased Reaction Biology Corp
Method: as §1, §2

[4] = biological target: T4, panel of 60 human kinases (Homo sapiens, UniProt P49841); test: as above; details: GSK3b; 0.1 μM; 10 μM ATP; read-out: % Enzyme Activity (relative to DSMO controls)
T4 construct: purchased Reaction Biology Corp
Method: as §1, §2

[5] = biological target: T5, panel of 60 human kinases (Homo sapiens, UniProt P50750); test: as above; details: 0.1 μM, 10 μM ATP, read-out: % Enzyme Activity (relative to DSMO controls)
T5 construct: purchased Reaction Biology Corp
Method: as §1, §2

[6] = biological target: T6, panel of 60 human kinases (Homo sapiens, UniProt Q00526); test: as above; details: CDK3/cyclin E; 0.1 μM; 10 μM ATP; read-out: % Enzyme Activity (relative to DSMO controls)
T6 construct: purchased Reaction Biology Corp
Method: as §1, §2

[7] = biological target: T7, panel of 60 human kinases (Homo sapiens, UniProt Q00536); test: as above; details: CDK16/cyclin Y (PCTAIRE); 0.1 μM; 10 μM ATP; read-out: % Enzyme Activity (relative to DSMO controls)
T7 construct: purchased Reaction Biology Corp
Method: as §1, §2

[8] = biological target: T8, panel of 60 human kinases (Homo sapiens, UniProt Q00537); test: as above; details: CDK17/cyclin Y (PCTK2); 0.1 μM; 10 μM ATP; read-out: % Enzyme Activity (relative to DSMO controls)
T8 construct: purchased Reaction Biology Corp
Method: as §1, §2

[9] = biological target: T9, panel of 60 human kinases (Homo sapiens, UniProt Q12851); test: as above; details: GCK/MAP4K1; 0.1 μM; 10 μM ATP; read-out: % Enzyme Activity (relative to DSMO controls)
T9 construct: purchased Reaction Biology Corp
T9 sequence (Q12851 1-820): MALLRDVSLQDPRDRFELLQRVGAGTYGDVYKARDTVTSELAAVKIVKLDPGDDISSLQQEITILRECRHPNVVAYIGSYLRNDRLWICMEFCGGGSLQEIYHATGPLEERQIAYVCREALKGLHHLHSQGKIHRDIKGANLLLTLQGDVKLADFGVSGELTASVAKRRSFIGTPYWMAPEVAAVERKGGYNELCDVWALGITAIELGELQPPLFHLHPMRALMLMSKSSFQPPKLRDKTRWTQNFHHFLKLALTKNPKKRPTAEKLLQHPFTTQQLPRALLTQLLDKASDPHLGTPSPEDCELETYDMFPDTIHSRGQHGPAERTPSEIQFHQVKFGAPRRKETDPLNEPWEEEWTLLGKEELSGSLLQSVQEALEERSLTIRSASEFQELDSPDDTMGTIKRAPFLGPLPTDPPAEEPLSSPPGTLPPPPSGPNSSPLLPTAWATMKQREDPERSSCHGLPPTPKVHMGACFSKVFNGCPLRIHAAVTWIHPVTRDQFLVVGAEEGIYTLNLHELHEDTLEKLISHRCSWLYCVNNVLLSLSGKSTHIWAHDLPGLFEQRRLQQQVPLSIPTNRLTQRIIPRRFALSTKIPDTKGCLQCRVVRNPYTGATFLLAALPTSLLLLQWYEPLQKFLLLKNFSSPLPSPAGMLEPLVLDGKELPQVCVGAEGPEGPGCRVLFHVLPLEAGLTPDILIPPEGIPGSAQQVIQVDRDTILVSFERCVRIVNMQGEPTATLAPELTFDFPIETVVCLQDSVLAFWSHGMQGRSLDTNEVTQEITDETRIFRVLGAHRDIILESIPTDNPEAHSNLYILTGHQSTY
Method: as §1, §2

[10] = biological target: T10, panel of 60 human kinases (Homo sapiens, UniProt Q15759); test: as above; details: P38b/MAPK11; 0.1 μM; 10 μM ATP; read-out: % Enzyme Activity (relative to DSMO controls)
T10 construct: purchased Reaction Biology Corp
Method: as §1, §2

[11] = biological target: T11, panel of 60 human kinases (Homo sapiens, UniProt Q92918); test: as above; details: HPK1/MAP4K1; 0.1 μM; 10 μM ATP; read-out: % Enzyme Activity (relative to DSMO controls)
T11 construct: purchased Reaction Biology Corp
Method: as §1, §2

[12] = biological target: T12, panel of 60 human kinases (Homo sapiens, UniProt Q9HAZ1); test: as above; details: CLK4; 0.1 μM; 10 μM ATP; read-out: % Enzyme Activity (relative to DSMO controls)
T12 construct: purchased Reaction Biology Corp
Method: as §1, §2

[13] = biological target: T13, panel of 60 human kinases (Homo sapiens, UniProt Q9UM73); test: as above; details: ALK; 0.1 μM; 10 μM ATP; read-out: % Enzyme Activity (relative to DSMO controls)
T13 construct: purchased Reaction Biology Corp
Method: as §1, §2

[14] = biological target: T14, panel of 60 human kinases (Homo sapiens, UniProt Q9Y4K4); test: as above; details: KHS/MAPK4K5; 0.1 μM; 10 μM ATP; read-out: % Enzyme Activity (relative to DSMO controls)
T14 construct: purchased Reaction Biology Corp
Method: as §1, §2

[15] = biological target: HGK/MAP4K4 (Homo sapiens, UniProt O95819); test: Radiolabeled ATP kinase assay (Reaction Biology Corp.), HGK; parameters: purchased Reaction Biology Corp; details: 10 μM ATP, read-out: % Enzyme Activity (relative to DMSO controls), HGK/MAP4K4, Data 1; for remaining activity at 0.025 µM: [Cmpd] 0.025 μM; for remaining activity at 0.1 µM: [Cmpd] 0.1 μM
Method: Meanwhile, the same analogs were analyzed in a radiolabeled ATP assay (10 μM ATP; Reaction Biology Corp.) to compare the extent to which they could inhibit the activity of HGK, MLK1, or MLK3 in a cell-free environment (Table S3 and S4).

T2 sequence (P08581 25-1390): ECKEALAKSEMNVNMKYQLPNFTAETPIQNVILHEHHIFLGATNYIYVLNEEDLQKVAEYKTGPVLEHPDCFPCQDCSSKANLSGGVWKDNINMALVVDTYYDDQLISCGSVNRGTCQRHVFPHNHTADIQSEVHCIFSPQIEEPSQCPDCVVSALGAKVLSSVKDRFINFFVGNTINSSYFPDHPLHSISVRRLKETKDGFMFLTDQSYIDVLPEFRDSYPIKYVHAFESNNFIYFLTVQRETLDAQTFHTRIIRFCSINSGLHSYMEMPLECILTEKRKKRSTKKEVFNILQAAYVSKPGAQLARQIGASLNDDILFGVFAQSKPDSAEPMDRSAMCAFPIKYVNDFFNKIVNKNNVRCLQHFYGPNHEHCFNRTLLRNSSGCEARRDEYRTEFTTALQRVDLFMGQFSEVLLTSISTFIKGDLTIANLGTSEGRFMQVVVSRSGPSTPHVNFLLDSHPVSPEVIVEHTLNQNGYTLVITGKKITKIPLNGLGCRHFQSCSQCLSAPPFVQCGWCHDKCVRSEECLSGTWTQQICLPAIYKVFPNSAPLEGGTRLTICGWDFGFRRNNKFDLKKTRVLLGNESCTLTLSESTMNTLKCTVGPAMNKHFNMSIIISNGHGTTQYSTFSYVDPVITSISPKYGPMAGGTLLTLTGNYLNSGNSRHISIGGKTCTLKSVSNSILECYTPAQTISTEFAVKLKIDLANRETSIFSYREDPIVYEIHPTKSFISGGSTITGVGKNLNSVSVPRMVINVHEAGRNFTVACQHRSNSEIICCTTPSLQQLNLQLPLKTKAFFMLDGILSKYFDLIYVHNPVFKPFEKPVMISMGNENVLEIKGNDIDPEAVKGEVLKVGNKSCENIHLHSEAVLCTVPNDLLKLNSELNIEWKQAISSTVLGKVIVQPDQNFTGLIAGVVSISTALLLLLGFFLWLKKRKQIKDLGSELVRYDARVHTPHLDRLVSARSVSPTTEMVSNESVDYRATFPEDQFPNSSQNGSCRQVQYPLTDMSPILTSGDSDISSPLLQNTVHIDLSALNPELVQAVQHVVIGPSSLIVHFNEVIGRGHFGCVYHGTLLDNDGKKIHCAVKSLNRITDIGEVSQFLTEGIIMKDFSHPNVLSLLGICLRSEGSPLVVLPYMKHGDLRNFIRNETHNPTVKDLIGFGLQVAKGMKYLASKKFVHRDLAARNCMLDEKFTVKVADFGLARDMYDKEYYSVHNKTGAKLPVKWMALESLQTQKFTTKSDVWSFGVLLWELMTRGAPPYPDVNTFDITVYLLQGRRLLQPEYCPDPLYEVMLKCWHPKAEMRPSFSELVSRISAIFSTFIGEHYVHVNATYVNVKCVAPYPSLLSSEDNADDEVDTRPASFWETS
T1 sequence (O95819 whole entry): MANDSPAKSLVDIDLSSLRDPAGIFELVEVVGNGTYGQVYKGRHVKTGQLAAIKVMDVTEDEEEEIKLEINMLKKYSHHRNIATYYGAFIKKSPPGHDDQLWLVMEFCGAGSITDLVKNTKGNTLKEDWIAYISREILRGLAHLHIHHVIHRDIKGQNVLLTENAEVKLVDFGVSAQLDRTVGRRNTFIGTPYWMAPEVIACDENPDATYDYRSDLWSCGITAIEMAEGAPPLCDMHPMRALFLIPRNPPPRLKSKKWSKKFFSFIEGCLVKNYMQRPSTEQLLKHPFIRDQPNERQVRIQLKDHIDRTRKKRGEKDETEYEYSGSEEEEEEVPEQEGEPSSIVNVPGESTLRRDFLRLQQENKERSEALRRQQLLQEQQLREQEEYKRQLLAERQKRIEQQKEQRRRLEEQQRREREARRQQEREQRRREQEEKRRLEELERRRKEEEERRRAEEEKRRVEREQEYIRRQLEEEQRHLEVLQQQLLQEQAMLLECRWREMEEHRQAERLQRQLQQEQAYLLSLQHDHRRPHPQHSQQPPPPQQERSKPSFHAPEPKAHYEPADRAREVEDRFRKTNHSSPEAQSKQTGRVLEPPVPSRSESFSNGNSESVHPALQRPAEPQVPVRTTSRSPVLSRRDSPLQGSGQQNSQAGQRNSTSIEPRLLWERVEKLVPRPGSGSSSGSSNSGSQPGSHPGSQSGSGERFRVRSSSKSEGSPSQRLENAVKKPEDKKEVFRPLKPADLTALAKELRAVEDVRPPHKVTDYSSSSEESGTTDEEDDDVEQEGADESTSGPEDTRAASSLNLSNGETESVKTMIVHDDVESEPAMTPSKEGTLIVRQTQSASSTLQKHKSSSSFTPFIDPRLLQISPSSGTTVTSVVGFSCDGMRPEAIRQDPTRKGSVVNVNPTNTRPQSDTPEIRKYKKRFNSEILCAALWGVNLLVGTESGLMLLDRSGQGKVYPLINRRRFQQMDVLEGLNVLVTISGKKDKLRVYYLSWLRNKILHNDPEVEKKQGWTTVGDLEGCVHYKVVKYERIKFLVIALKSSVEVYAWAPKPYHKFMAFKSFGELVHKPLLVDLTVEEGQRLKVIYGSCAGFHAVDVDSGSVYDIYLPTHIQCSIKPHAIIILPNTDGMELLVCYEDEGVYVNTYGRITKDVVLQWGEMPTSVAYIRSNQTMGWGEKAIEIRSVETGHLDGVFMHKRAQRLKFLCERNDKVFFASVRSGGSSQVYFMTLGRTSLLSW
Sequence of HGK/MAP4K4 (O95819 whole entry): as above
T8 sequence (Q00537 whole entry): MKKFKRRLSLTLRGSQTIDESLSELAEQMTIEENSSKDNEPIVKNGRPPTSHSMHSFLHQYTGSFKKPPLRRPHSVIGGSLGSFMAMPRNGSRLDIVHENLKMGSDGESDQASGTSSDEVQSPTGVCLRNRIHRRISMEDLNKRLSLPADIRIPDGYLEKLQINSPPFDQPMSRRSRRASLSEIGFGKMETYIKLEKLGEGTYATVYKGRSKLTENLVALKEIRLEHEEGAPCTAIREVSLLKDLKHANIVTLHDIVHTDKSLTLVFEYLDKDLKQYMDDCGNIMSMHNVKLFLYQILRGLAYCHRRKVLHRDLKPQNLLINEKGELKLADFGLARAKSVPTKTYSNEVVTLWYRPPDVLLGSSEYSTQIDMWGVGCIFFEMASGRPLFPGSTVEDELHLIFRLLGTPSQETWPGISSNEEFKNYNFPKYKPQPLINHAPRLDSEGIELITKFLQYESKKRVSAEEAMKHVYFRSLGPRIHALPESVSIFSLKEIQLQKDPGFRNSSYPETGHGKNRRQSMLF
T5 sequence (P50750 whole entry): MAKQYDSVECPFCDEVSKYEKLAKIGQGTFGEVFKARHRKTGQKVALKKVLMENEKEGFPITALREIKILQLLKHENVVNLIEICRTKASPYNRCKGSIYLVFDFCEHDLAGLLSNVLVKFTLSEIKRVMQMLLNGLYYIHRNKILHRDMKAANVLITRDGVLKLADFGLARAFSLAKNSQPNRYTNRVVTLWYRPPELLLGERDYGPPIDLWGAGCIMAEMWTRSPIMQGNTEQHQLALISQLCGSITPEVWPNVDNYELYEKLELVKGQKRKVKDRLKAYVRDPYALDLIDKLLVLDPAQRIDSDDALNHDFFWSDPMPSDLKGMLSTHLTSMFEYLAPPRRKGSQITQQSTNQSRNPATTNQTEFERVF
T7 sequence (Q00536 whole entry): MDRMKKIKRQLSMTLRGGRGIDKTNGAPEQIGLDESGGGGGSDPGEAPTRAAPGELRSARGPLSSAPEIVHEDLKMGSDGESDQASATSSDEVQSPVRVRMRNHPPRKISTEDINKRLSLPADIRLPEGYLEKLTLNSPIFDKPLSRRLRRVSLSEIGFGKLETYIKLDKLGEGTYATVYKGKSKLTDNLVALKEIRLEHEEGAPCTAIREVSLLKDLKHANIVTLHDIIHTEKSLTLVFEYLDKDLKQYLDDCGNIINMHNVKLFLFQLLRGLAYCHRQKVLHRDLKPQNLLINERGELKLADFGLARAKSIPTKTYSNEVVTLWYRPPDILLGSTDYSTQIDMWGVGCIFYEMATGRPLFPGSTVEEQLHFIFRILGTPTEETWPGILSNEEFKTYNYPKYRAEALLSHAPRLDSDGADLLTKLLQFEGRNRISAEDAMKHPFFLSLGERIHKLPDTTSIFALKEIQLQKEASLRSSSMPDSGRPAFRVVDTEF
T14 sequence (Q9Y4K4 whole entry): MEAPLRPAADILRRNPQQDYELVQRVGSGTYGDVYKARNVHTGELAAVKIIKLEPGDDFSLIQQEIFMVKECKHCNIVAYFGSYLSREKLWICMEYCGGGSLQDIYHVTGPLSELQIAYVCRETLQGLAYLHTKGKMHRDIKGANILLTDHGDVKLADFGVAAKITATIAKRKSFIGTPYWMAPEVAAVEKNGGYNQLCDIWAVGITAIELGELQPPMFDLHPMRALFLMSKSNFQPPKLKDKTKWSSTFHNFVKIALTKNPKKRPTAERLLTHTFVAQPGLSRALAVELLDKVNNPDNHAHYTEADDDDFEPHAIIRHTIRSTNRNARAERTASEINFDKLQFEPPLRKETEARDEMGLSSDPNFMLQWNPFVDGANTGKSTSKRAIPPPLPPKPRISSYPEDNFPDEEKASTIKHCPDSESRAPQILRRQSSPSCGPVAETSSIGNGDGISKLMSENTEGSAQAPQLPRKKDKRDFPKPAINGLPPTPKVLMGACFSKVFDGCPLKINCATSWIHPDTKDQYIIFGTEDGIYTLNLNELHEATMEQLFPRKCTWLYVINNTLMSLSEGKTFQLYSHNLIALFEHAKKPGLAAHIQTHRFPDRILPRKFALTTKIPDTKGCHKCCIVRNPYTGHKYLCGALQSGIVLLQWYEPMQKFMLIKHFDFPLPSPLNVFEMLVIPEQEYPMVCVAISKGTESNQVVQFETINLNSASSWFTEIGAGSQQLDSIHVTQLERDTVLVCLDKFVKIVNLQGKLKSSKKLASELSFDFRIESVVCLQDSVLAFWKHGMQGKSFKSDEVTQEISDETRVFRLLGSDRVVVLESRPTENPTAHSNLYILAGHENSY

| Structure (SMILES) | remaining activity at 0.1 µM [1] [%] | remaining activity at 0.1 µM [2] [%] | remaining activity at 0.1 µM ([3]; CDK4/cyclin D1) [%] | remaining activity at 0.1 µM ([3]; CDK4/cyclin D3) [%] | remaining activity at 0.1 µM [4] [%] | remaining activity at 0.1 µM ([5]; CDK9/cyclin K) [%] | remaining activity at 0.1 µM ([5]; CDK9/cyclin T1) [%] | remaining activity at 0.1 µM ([5]; CDK9/cyclin T2) [%] | remaining activity at 0.1 µM [6] [%] | remaining activity at 0.1 µM [7] [%] | remaining activity at 0.1 µM [8] [%] | remaining activity at 0.1 µM [9] [%] | remaining activity at 0.1 µM [10] [%] | remaining activity at 0.1 µM [11] [%] | remaining activity at 0.1 µM [12] [%] | remaining activity at 0.1 µM [13] [%] | remaining activity at 0.1 µM [14] [%] | remaining activity at 0.025 µM [15] [%] | remaining activity at 0.1 µM [15] [%] |
| --- | --- | --- | --- | --- | --- | --- | --- | --- | --- | --- | --- | --- | --- | --- | --- | --- | --- | --- | --- |
| COc1ccccc1-c1c[nH]c2ncc(-c3ccc(CN4CCN(C)CC4)cc3)cc12 [Compound 7at, 3-(2-Methoxyphenyl)-5-(4-((4-methylpiperazin-1-yl)methyl)phenyl)-1H-pyrrolo[2,3-b]pyridine] | 9.52 | 86.8 | 14.1 | 24.4 | 97.3 | 79.5 | 46.3 | 37.4 | 72.7 | 76.9 | 69.7 | 12.3 | 97.7 | 55.6 | 90.4 | 77.8 | 3.35 | 29.3 | 4.83 |
| Cc1nn(C)c(C)c1-c1c[nH]c2ncc(-c3ccc(CN4CCN(C)CC4)cc3)cc12 [Compound 7ai, 5-(4-((4-Methylpiperazin-1-yl)methyl)phenyl)-3-(1,3,5-trimethyl-1H-pyrazol-4-yl)-1H-pyrrolo[2,3-b]pyridine] | 9.15 | 77.4 | 65.9 | 65.4 | 94 | 99.7 | 85.8 | 84.8 | 96 | 87.7 | 69.4 | 53.8 | 104 | 67.8 | 78.5 | 76.2 | 16.5 | 105 | 106 |
| CN1CCN(Cc2ccc(-c3cnc4[nH]cc(-c5ccncc5)c4c3)cc2)CC1 [Compound 7n, 5-(4-((4-Methylpiperazin-1-yl)methyl)phenyl)-3-(pyridin-4-yl)-1H-pyrrolo[2,3-b]pyridine] | 35 | 102 | 27.8 | 37 | 90.7 | 83.4 | 47.9 | 38.8 | 72.3 | 21.5 | 10.7 | 59.6 | 101 | 57.7 | 72.2 | 94.1 | 30.9 | 65.7 | 29.9 |
| CN1CCN(Cc2ccc(-c3cnc4[nH]cc(-c5cnn(Cc6ccccc6)c5)c4c3)cc2)CC1 [Compound 7ah, 3-(1-Benzyl-1H-pyrazol-4-yl)-5-(4-((4-methylpiperazin-1-yl)methyl)phenyl)-1H-pyrrolo[2,3-b]pyridine] | 5.18 | 86.6 | 25.9 | 26 | 60.6 | 93.3 | 57.8 | 82.7 | 65.2 | 8.19 | 7.55 | 10.1 | 101 | 17.8 | 21.8 | 28.8 | 6.09 | 42.8 | 3.56 |
| CN1CCN(Cc2ccc(-c3cnc4[nH]cc(-c5ccoc5)c4c3)cc2)CC1 [Compound 7w, 3-(Furan-3-yl)-5-(4-((4-methylpiperazin-1-yl)methyl)phenyl)-1H-pyrrolo[2,3-b]pyridine] | 2.85 | 96.6 | 73.4 | 72.2 | 85.1 | 97.8 | 96.1 | 65.6 | 93.7 | 80.8 | 61.4 | 33.6 | 99.3 | 62.4 | 85.5 | 89.7 | 15.1 | 29 | 4.46 |
| CN1CCN(Cc2ccc(-c3cnc4[nH]cc(-c5cccc(Cl)c5)c4c3)cc2)CC1 [Compound 7ad, 3-(3-Chlorophenyl)-5-(4-((4-methylpiperazin-1-yl)methyl)phenyl)-1H-pyrrolo[2,3-b]pyridine] | 1.36 | 86.2 | 70.9 | 58.1 | 98.1 | 99.7 | 78 | 95.2 | 95.5 | 96.9 | 70.4 | 8.09 | 103 | 62.5 | 87.8 | 108 | 5.8 | 8.51 | 2.92 |
